Among the data in patent publication US11596639B2, “Substituted indole Mcl-1 inhibitors” (Vanderbilt University, priority 2016, dated 2023) are Ki values, retold here.

Molecules are shown by their SMILES. A value given as a limit tells only on which side of the number the result lay.

Mcl-1, sequence (Q07820 172-327): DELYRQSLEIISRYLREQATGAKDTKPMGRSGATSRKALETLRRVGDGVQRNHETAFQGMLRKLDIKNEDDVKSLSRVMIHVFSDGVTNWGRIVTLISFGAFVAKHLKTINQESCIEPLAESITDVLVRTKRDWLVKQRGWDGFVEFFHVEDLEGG

This assay addresses Mcl-1 (Homo sapiens (Human), UniProt Q07820). Nature of the assay: Fluorescence polarization anisotropy (FPA) competition assay, FITC-Bak or FITC-Bim BH3 peptide. As to conditions: read-out: Ki for Inhibition of Mcl-1 by FPA assay. It counts as binding. On the technique in general: Fluorescence polarisation rises when a labelled molecule tumbles more slowly, as on binding a larger partner.
Usually Ki stands for a dissociation constant, usually derived from enzyme kinetics or from competition with a known ligand. Consider `Cc1cc(OCCCc2c3n(c4c(-c5c(C)nn(C)c5C)c(Cl)ccc24)CCCN(c2ccc4c(c2)CCCN4CC(=O)O)C3=O)cc(C)c1Cl` [Example 46, 2-(6-(8-Chloro-11-(3-(4-chloro-3,5-dimethylphenoxy)propyl)-1-oxo-7-(1,3,5-trimethyl-1H-pyrazol-4-yl)-4,5-dihydro-1H-[1,4]diazepino[1,2-a]indol-2(3H)-yl)-3,4-dihydroquinolin-1(2H)-yl)acetic acid], for which the Ki was determined as 26 nM.

As to `Cc1cc(OCCCc2c3n(c4c(-c5c(C)nn(C)c5C)c(Cl)ccc24)CCCN(Cc2cc(C(=O)O)cc(N4CCN(S(=O)(=O)C5CC5)CC4)n2)C3=O)cc(C)c1Cl` [Example 47, 2-((8-Chloro-11-(3-(4-chloro-3,5-dimethylphenoxy)propyl)-1-oxo-7-(1,3,5-trimethyl-1H-pyrazol-4-yl)-4,5-dihydro-1H-[1,4]diazepino[1,2-a]indol-2(3H)-yl)methyl)-6-(4-(cyclopropylsulfonyl)piperazin-1-yl)isonicotinic acid], the Ki was found to be 19 nM.

For the compound `COC(=O)c1cc2c(c(N3CCCn4c(c(CCCOc5cc(C)c(Cl)c(C)c5)c5ccc(Cl)c(-c6c(C)nn(C)c6C)c54)C3=O)c1)OCCO2` [Example 60, Methyl 8-(8-chloro-11-(3-(4-chloro-3,5-dimethylphenoxy)propyl)-1-oxo-7-(1,3,5-trimethyl-1H-pyrazol-4-yl)-4,5-dihydro-1H-[1,4]diazepino[1,2-a]indol-2(3H)-yl)-2,3-dihydrobenzo[b][1,4]dioxine-6-carboxylate], the Ki is below 1 nM.

For the compound `Cc1cc(OCCCc2c3n(c4c(-c5c(C)nn(C)c5C)c(Cl)ccc24)CCCN(C2=CNC(C(=O)O)=C(O)N2)C3=O)cc(C)c1Cl` [Example 73, 5-(8-Chloro-11-(3-(4-chloro-3,5-dimethylphenoxy)propyl)-1-oxo-7-(1,3,5-trimethyl-1H-pyrazol-4-yl)-4,5-dihydro-1H-[1,4]diazepino[1,2-a]indol-2(3H)-yl)-3-hydroxy-1,4-dihydropyrazine-2-carboxylic acid], the Ki is below 1 nM.

On to `Cc1cc(OCCCc2c3n(c4c(-c5c(C)nn(C)c5C)c(Cl)ccc24)CCCN(c2cc(C(=O)O)c4c(cnn4C)c2)C3=O)cc(C)c1Cl` [Example 85, 5-[8-Chloro-11-[3-(4-chloro-3,5-dimethyl-phenoxy)propyl]-1-oxo-7-(1,3,5-trimethylpyrazol-4-yl)-4,5-dihydro-3H-[1,4]diazepino[1,2-a]indol-2-yl]-1-methyl-indazole-7-carboxylic acid], for which the Ki is 1.5 nM.

As for `Cc1cc(OCCCc2c3n(c4c(-c5c(C)cccc5C)c(Cl)ccc24)CCCNC3=O)cc(C)c1Cl` [Example 86, 8-Chloro-11-(3-(4-chloro-3,5-dimethylphenoxy)propyl)-7-(2,6-dimethylphenyl)-2,3,4,5-tetrahydro-1H-[1,4]diazepino[1,2-a]indol-1-one], the Ki worked out at 47 nM.

Take `CCn1ncc2c(C(=O)O)cc(N3C[C@@H](C)n4c(c(CCCOc5cc(C)c(Cl)c(C)c5)c5ccc(Cl)c(-c6c(C)nn(C)c6C)c54)C3=O)cc21` [Example 87, (R)-6-(7-chloro-10-(3-(4-chloro-3,5-dimethylphenoxy)propyl)-4-methyl-1-oxo-6-(1,3,5-trimethyl-1H-pyrazol-4-yl)-3,4-dihydropyrazino[1,2-a]indol-2(1H)-yl)-1-ethyl-1H-indazole-4-carboxylic acid]: the Ki is below 1 nM.

For the compound `CCN1C(=O)COc2cc(C(=O)O)cc(N3C[C@@H](C)n4c(c(CCCOc5cc(C)c(Cl)c(C)c5)c5ccc(Cl)c(-c6c(C)nn(C)c6C)c54)C3=O)c21` [Example 90, (R)-5-(7-chloro-10-(3-(4-chloro-3,5-dimethylphenoxy)propyl)-4-methyl-1-oxo-6-(1,3,5-trimethyl-1H-pyrazol-4-yl)-3,4-dihydropyrazino[1,2-a]indol-2(1H)-yl)-4-ethyl-3-oxo-3,4-dihydro-2H-benzo[b][1,4]oxazine-7-carboxylic acid], the Ki came to 8.7 nM.

On to `Cc1cc(OCCCc2c3n(c4c(-c5c(C)cccc5C)c(Cl)ccc24)CCCN(c2cc(C(=O)O)c4ccn(C)c4c2)C3=O)cc(C)c1Cl` [Example 91, 6-[8-Chloro-11-[3-(4-chloro-3,5-dimethyl-phenoxy)propyl]-7-(2,6-dimethylphenyl)-1-oxo-4,5-dihydro-3H-[1,4]diazepino[1,2-a]indol-2-yl]-1-methyl-indole-4-carboxylic acid], for which the inhibition constant (Ki) is 7.3 nM.

`Cc1cc(OCCCc2c3n(c4c(-c5c(C)nn(C)c5C)c(Cl)ccc24)CCCN(c2cc(C(=O)O)c4cnn(CCO)c4c2)C3=O)cc(C)c1Cl` [Example 107, 6-[8-Chloro-11-[3-(4-chloro-3,5-dimethyl-phenoxy)propyl]-1-oxo-7-(1,3,5-trimethylpyrazol-4-yl)-4,5-dihydro-3H-[1,4]diazepino[1,2-a]indol-2-yl]-1-(2-hydroxyethyl)indazole-4-carboxylic acid]: the Ki is below 1 nM.

With `Cc1cc(OCCCc2c3n(c4c(-c5c(C)nn(C)c5C)c(Cl)ccc24)[C@H](C)CN(c2ccc4c(C(=O)O)nn(C)c4c2)C3=O)cc(C)c1Cl` [Example 121, (R)-6-(7-Chloro-10-(3-(4-chloro-3,5-dimethylphenoxy)propyl)-4-methyl-1-oxo-6-(1,3,5-trimethyl-1H-pyrazol-4-yl)-3,4-dihydropyrazino[1,2-a]indol-2(1H)-yl)-1-methyl-1H-indazole-3-carboxylic acid], the Ki turned out to be 1.9 nM.

With `Cc1cc(OCCCc2c3n(c4c(-c5c(C)nn(C)c5C)c(Cl)ccc24)[C@H](C)CN(c2cccc4c2c(C(=O)O)nn4C)C3=O)cc(C)c1Cl` [Example 127, 4-[(4R)-7-chloro-10-[3-(4-chloro-3,5-dimethyl-phenoxy)propyl]-4-methyl-1-oxo-6-(1,3,5-trimethylpyrazol-4-yl)-3,4-dihydropyrazino[1,2-a]indol-2-yl]-1-methyl-indazole-3-carboxylic acid], the Ki was below 1 nM.

For the compound `Cc1cc(OCCCc2c3n(c4c(-c5c(C)nn(C)c5C)c(Cl)ccc24)[C@H](C)CN(c2nc4cc(C(=O)O)ccn4n2)C3=O)cc(C)c1Cl` [Example 135, (R)-2-(7-chloro-10-(3-(4-chloro-3,5-dimethylphenoxy)propyl)-4-methyl-1-oxo-6-(1,3,5-trimethyl-1H-pyrazol-4-yl)-3,4-dihydropyrazino[1,2-a]indol-2(1H)-yl)-[1,2,4]triazolo[1,5-a]pyridine-7-carboxylic acid], the Ki was below 1 nM.

Regarding `Cc1cc(OCCCc2c3n(c4c(-c5c(C)nn(CC(=O)O)c5C)c(Cl)ccc24)CCCN(c2ccccc2)C3=O)cc(C)c1Cl` [Example 136, 2-(4-(8-Chloro-11-(3-(4-chloro-3,5-dimethylphenoxy)propyl)-1-oxo-2-phenyl-2,3,4,5-tetrahydro-1H-[1,4]diazepino[1,2-a]indol-7-yl)-3,5-dimethyl-1H-pyrazol-1-yl)acetic acid], the Ki is below 1 nM.

With `Cc1cc(OCCCc2c3n(c4c(-c5c(C)nn(C)c5C)c(Cl)ccc24)[C@H](C)CN(c2ccc4nc(C(=O)O)cn4c2)C3=O)cc(C)c1Cl` [Example 139, (R)-6-(7-chloro-10-(3-(4-chloro-3,5-dimethylphenoxy)propyl)-4-methyl-1-oxo-6-(1,3,5-trimethyl-1H-pyrazol-4-yl)-3,4-dihydropyrazino[1,2-a]indol-2(1H)-yl)imidazo[1,2-a]pyridine-2-carboxylic acid], the Ki came out at 1.1 nM.
